Test results reported in patent US20250197842A1, “IMPROVING ENZYMATIC CHANNELING EFFICIENCY VIA MIXED NANOPARTICLE SCAFFOLDS WITHIN SELF-ASSEMBLED NANOPARTICLE ENZYME CLUSTERS” (The Government of the United States of America, as …, priority 2023, published 2025).
Each block holds one molecule with its values, some of them ahead of it.

Assays:
[1] = biological target: E. coli BL21(DE3) pyruvate kinase PykA (EC 2.7.1.40), N-terminal (His)6, SEQ ID NO 1, free in solution (Escherichia coli, UniProt P21599); conditions: free enzyme (ratio 0), apparent
E. coli BL21(DE3) pyruvate kinase PykA (EC 2.7.1.40), N-terminal (His)6, SEQ ID NO 1, free in solution, sequence (P21599 whole entry, added parts left off): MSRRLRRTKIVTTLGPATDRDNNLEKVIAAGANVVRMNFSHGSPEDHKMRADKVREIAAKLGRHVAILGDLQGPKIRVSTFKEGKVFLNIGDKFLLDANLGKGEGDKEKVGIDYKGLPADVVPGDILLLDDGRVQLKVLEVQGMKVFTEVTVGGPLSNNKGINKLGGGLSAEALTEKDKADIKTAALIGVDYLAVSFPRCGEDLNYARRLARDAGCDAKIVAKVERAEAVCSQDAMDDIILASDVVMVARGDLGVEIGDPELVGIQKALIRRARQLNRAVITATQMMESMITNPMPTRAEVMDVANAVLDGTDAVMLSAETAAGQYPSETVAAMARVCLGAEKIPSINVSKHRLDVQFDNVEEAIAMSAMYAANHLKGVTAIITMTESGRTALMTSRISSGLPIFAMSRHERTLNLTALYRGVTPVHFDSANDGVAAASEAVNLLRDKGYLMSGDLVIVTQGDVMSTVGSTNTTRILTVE

[2] = biological target: E. coli BL21(DE3) pyruvate kinase PykA (EC 2.7.1.40), N-terminal (His)6, SEQ ID NO 1, on mixed 525 QD/NPL (Escherichia coli, UniProt P21599); conditions: ratio 2 enzyme per NP
E. coli BL21(DE3) pyruvate kinase PykA (EC 2.7.1.40), N-terminal (His)6, SEQ ID NO 1, on mixed 525 QD/NPL, sequence (P21599 whole entry, added parts left off): as above
Text: To examine the display of enzymes on mixed NP scaffolds, next examined was the individual activity of Pyka and LDH at a ratio of 2 enzyme per NP in representative samples comprising of three different ratios of 525 QD to NPL, see Table 3.

[3] = biological target: T1, E. coli BL21(DE3) lactate dehydrogenase LDH (EC 1.1.1.28), N-terminal (His)6, SEQ ID NO 2, free in solution (Escherichia coli, UniProt P52643); test: Michaelis Menten kinetics of LDH free in solution; type: biochemical, E. coli strain BL21(DE3); conditions: free enzyme (ratio 0), apparent
T1 sequence (P52643 with tags, fused parts or gaps): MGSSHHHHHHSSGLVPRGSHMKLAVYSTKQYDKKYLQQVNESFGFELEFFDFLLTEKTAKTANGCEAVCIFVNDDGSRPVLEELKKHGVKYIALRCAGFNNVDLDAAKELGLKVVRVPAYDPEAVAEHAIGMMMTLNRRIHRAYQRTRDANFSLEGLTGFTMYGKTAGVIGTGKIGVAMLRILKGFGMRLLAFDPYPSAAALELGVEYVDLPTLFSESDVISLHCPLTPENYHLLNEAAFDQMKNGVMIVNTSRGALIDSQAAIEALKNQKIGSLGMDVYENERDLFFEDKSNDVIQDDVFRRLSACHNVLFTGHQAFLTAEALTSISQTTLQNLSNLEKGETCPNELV

[4] = biological target: T2, E. coli BL21(DE3) lactate dehydrogenase LDH (EC 1.1.1.28), N-terminal (His)6, SEQ ID NO 2, assembled on 525 QDs (Escherichia coli, UniProt P52643); test: Michaelis Menten kinetics of LDH assembled on 525 QDs; type: biochemical, E. coli strain BL21(DE3); conditions: apparent
T2 sequence (P52643 with tags, fused parts or gaps): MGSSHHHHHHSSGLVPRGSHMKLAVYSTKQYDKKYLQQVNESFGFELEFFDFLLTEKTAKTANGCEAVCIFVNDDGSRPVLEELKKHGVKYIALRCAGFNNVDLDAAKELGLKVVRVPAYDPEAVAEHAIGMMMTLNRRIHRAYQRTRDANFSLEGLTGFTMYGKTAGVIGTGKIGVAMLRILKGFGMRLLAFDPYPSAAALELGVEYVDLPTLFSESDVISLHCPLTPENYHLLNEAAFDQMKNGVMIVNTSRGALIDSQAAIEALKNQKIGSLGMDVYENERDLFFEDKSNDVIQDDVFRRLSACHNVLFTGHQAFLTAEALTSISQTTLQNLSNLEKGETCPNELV
Text: (§1) The latter are a quasi-two-dimensional QD-like material. As noted above in the Definitions section, NP or nanomaterial is used interchangeable to refer generically to these materials while QDs and NPLs are used to specify a given type. The NP materials were surface functionalized with the zwitterionic dihydrolipoic acid derivative compact ligand 4 (CL4, see U.S. Pat. No. 8,859,284), which replace the hydrophobic ligands utilized during nanomaterial crystal growth for colloidal stability in aqueous buffers. For enzyme attachment or bioconjugation to the NPs, self-assembly was driven by metal affinity coordination of the enzyme's pendant (His)6-motifs to the QD's ZnS shell.

[5] = biological target: T3, E. coli BL21(DE3) lactate dehydrogenase LDH (EC 1.1.1.28), N-terminal (His)6, SEQ ID NO 2, assembled on 625 QDs (Escherichia coli, UniProt P52643); test: Michaelis Menten kinetics of LDH assembled on 625 QDs; type: biochemical, E. coli strain BL21(DE3); conditions: apparent
T3 sequence (P52643 with tags, fused parts or gaps): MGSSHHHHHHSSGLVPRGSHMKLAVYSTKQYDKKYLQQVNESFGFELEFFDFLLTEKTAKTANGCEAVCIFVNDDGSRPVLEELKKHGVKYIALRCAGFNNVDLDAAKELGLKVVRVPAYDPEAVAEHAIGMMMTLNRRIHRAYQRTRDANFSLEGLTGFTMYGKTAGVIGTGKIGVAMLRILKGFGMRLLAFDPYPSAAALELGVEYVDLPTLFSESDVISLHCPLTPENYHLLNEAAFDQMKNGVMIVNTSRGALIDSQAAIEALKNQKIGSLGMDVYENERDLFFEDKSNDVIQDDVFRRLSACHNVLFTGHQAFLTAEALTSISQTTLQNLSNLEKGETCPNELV
Text: as §1

[6] = biological target: T4, E. coli BL21(DE3) lactate dehydrogenase LDH (EC 1.1.1.28), N-terminal (His)6, SEQ ID NO 2, assembled on 641 QDs (Escherichia coli, UniProt P52643); test: Michaelis Menten kinetics of LDH assembled on 641 QDs; type: biochemical, E. coli strain BL21(DE3); conditions: apparent
T4 sequence (P52643 with tags, fused parts or gaps): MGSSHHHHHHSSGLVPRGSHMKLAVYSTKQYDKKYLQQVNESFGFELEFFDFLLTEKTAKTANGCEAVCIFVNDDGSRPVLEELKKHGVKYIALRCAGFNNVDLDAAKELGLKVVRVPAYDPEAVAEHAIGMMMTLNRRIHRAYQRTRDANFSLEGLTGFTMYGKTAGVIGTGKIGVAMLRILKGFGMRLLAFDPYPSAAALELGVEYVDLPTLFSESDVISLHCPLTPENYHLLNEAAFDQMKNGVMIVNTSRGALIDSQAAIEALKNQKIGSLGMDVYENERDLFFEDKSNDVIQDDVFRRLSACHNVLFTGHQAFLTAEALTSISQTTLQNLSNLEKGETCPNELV
Text: as §1

[7] = biological target: T5, E. coli BL21(DE3) lactate dehydrogenase LDH (EC 1.1.1.28), N-terminal (His)6, SEQ ID NO 2, assembled on NPLs (Escherichia coli, UniProt P52643); test: Michaelis Menten kinetics of LDH assembled on NPLs; type: biochemical, E. coli strain BL21(DE3); conditions: ratio 1 LDH per NPL, apparent
T5 sequence (P52643 with tags, fused parts or gaps): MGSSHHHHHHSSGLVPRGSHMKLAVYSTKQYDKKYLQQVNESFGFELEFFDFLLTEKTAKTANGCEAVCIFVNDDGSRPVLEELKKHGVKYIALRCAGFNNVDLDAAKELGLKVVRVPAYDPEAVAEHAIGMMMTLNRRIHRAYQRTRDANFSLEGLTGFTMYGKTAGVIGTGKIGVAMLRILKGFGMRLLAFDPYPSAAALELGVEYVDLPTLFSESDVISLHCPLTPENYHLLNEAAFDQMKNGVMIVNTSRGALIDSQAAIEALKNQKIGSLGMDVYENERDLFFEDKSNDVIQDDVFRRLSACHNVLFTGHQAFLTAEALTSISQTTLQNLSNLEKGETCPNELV
Text: as §1

[8] = biological target: T6, E. coli BL21(DE3) lactate dehydrogenase LDH (EC 1.1.1.28), N-terminal (His)6, SEQ ID NO 2, on mixed 525 QD/NPL (Escherichia coli, UniProt P52643); type: biochemical, E. coli strain BL21(DE3); conditions: 0.75 nM 525 QD/0.5 nM NPL, ratio 2 per NP, apparent
T6 sequence (P52643 with tags, fused parts or gaps): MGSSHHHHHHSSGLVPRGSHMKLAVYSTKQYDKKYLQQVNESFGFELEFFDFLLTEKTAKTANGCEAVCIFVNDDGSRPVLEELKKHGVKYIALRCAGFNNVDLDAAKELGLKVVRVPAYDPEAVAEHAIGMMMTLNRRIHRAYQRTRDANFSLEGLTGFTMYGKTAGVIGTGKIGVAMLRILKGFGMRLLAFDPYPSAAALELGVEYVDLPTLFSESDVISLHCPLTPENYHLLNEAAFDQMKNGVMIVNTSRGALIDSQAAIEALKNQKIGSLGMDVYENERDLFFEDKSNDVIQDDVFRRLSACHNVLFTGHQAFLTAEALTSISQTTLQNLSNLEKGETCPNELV
Text: as §1

[9] = substrate: CC(=O)C(=O)O; test: Michaelis Menten kinetics of LDH free in solution; type: biochemical, E. coli strain BL21(DE3); conditions: other: free enzyme (ratio 0), apparent, pH 8.0

kcat [1]: 25 s⁻¹ | kcat [2]: 13.3 s⁻¹
Molecule: C=C(OP(=O)(O)O)C(=O)O [PEP, phosphoenolpyruvic acid]

Molecule: CC(=O)C(=O)O [pyruvic acid]
kcat [3]: 13.3 s⁻¹ | kcat/KM [3]: 0.015 ± 0.007 M⁻¹ s⁻¹ | VMax ([4]; ratio 1 LDH per QD): 40.0 ± 6 nM/s | kcat ([4]; ratio 1 LDH per QD): 15.9 ± 0.4 s⁻¹ | kcat/KM ([4]; ratio 1 LDH per QD): 0.015 ± 0.0005 M⁻¹ s⁻¹ | VMax ([4]; ratio 2 LDH per QD): 45.0 ± 1 nM/s | kcat/KM ([4]; ratio 2 LDH per QD): 0.02 ± 0.007 M⁻¹ s⁻¹ | VMax ([4]; ratio 4 LDH per QD): 40.0 ± 1 nM/s | kcat ([4]; ratio 4 LDH per QD): 15.5 ± 0.1 s⁻¹ | kcat/KM ([4]; ratio 4 LDH per QD): 0.014 ± 0.004 M⁻¹ s⁻¹ | VMax ([4]; ratio 8 LDH per QD): 57.0 ± 1 nM/s | kcat/KM ([4]; ratio 8 LDH per QD): 0.015 ± 0.003 M⁻¹ s⁻¹ | VMax ([5]; ratio 1 LDH per QD): 69.0 ± 1 nM/s | kcat/KM ([5]; ratio 1 LDH per QD): 0.021 ± 0.005 M⁻¹ s⁻¹ | VMax ([5]; ratio 2 LDH per QD): 58.0 ± 3 nM/s | kcat/KM ([5]; ratio 2 LDH per QD): 0.023 ± 0.004 M⁻¹ s⁻¹ | VMax ([5]; ratio 4 LDH per QD): 49.0 ± 1 nM/s | kcat ([5]; ratio 4 LDH per QD): 19.5 ± 0.1 s⁻¹ | kcat/KM ([5]; ratio 4 LDH per QD): 0.018 ± 0.005 M⁻¹ s⁻¹ | VMax ([5]; ratio 8 LDH per QD): 52.0 ± 1 nM/s | kcat ([5]; ratio 8 LDH per QD): 20.7 ± 0.1 s⁻¹ | kcat/KM ([5]; ratio 8 LDH per QD): 0.017 ± 0.005 M⁻¹ s⁻¹ | VMax ([6]; ratio 1 LDH per QD): 8.3 ± 0.1 nM/s | kcat ([6]; ratio 1 LDH per QD): 3.32 ± 0.1 s⁻¹ | kcat/KM ([6]; ratio 1 LDH per QD): 0.006 ± 0.002 M⁻¹ s⁻¹ | VMax ([6]; ratio 2 LDH per QD): 7.7 ± 0.3 nM/s | kcat/KM ([6]; ratio 2 LDH per QD): 0.0038 ± 0.0007 M⁻¹ s⁻¹ | VMax ([6]; ratio 4 LDH per QD): 3.6 ± 0.5 nM/s | kcat ([6]; ratio 4 LDH per QD): 1.45 ± 0.1 s⁻¹ | kcat/KM ([6]; ratio 4 LDH per QD): 0.0021 ± 0.001 M⁻¹ s⁻¹ | VMax ([6]; ratio 8 LDH per QD): 2.6 ± 0.3 nM/s | kcat ([6]; ratio 8 LDH per QD): 1.04 ± 0.1 s⁻¹ | kcat/KM ([6]; ratio 8 LDH per QD): 0.0013 ± 0.0003 M⁻¹ s⁻¹ | kcat [7]: 32.3 s⁻¹ | VMax [8]: 53.0 ± 1 nM/s | kcat/KM [8]: 0.019 ± 0.002 M⁻¹ s⁻¹

B1: E. coli BL21(DE3) lactate dehydrogenase LDH (EC 1.1.1.28), N-terminal (His)6, SEQ ID NO 2, free in solution (Escherichia coli K-12) (protein)
chain: MGSSHHHHHHSSGLVPRGSHMKLAVYSTKQYDKKYLQQVNESFGFELEFFDFLLTEKTAKTANGCEAVCIFVNDDGSRPVLEELKKHGVKYIALRCAGFNNVDLDAAKELGLKVVRVPAYDPEAVAEHAIGMMMTLNRRIHRAYQRTRDANFSLEGLTGFTMYGKTAGVIGTGKIGVAMLRILKGFGMRLLAFDPYPSAAALELGVEYVDLPTLFSESDVISLHCPLTPENYHLLNEAAFDQMKNGVMIVNTSRGALIDSQAAIEALKNQKIGSLGMDVYENERDLFFEDKSNDVIQDDVFRRLSACHNVLFTGHQAFLTAEALTSISQTTLQNLSNLEKGETCPNELV
Km [9]: 900 ± 400 µM | Vmax [9]: 1.98 µM/min
